Three compounds from patent publication US10351519B2, “Sulfamate derivative compounds, processes for preparing them and their uses” (BIO-PHARM SOLUTIONS CO., LTD., priority 2016, dated 2019) can be followed below.

Common to all, as to assay type: in vivo
The test system of assay [1] is Sprague-Dawley rats. Put plainly: Antiallodynic activity on vincristine-induced pain model. Conditions: intraperitoneally; for ED50: Rattus norvegicus, ip. The method, then: Male, Sprague-Dawley rats (160-180 g, Nara Bio, Korea) were habituated for 1 week before surgery and allowed free access to food and water throughout the experimentation. Room temperature and humidity were maintained at 24±2 and 50±10%, respectively.
The vincristine-induced pain model was established by the procedure of Natsuko et al. (2001) with minor modifications. Vincristine was intravenously infused continuously for 14 days using a mini-osmotic pump as follows: 30 ug/kg vincristine sulfate solution (Hospira, Australia) was diluted with 0.9% saline. The pumps (Alzet Model 2002, USA) were filled with the vincristine solution and primed by incubation at 37 for 4 hours before the infusion. Briefly, animal were put under gaseous anesthesia with isoflurane. A catheter made from PE-60 tube was inserted into an external jugular vein in rat. Sham controls were prepared in the same manner, with the external jugular vein exposed, but with the external jugular vein not cut down. […]
Tactile sensitivity (Mechanical allodynia) was evaluated using von Frey monofilaments before and after treatment, and animals were used withdrawal threshold value was less than 4 g. […] The tactile sensitivity for ipsilateral hind paw was measured using the up-and-down method (Dixon, 1980) with seven von Frey monofilaments (0.4, 1, 2, 4, 6, 8, and 15 g) to 3 trials. […] The 50% paw withdrawal threshold for each paw was calculated using the following formula: [Xth] log=[vFr] log+ky where [vFr] is the force of the last von Frey used, k=0.2249 which is the average interval (in log units) between the von Frey monofilaments, and y is a value that depends upon the pattern of withdrawal responses (Dixon, 1980).
Antiallodynic effect of compound was evaluated at the three dose, intraperitoneally administrated in a volume of 5 ul/g, bw in a vehicle of 30% (v/v) PEG or 20% (v/v) Tween 80. […]
The relative values compared to the sham (% control) were calculated and shown in Table 5, which show an antiallodynic effect of Compound 2&7 on vincristine-induced pain model in rats.

Assay [2] relates to ICR mice. Put plainly: Chemical induced seizure model (strychnine). To be noted: intraperitoneal. As for the experimental part: Male ICR mice (purchased from Orient Bio Inc. Korea) of body weight 19-27 g were used for these studies. The test materials were administered intraperitoneal route in a volume of 10 ul/g weight. Pharmacological effects of all the test materials were evaluated to compared test groups (n=6) with a control group (n=6). Control group was administrated vehicle, only. The peak time was determined by administration test material's random dose for 0.5, 1, 2 hour. The time that the most protect was defined peak time and ED50 was determined by other dose administration at peak time. Strychnine was dissolved in 0.9% saline and administered intraperitoneally (i.p.) at its CD97 (convulsive dose 97%) the dose of strychnine that produced clonic seizures in 97% in a volume of 10 ul/g body weight. The animals were then transferred to observation cages and observed continuously for 30 min. Clonic seizure was elicited in approximately 95% of control group. Protection was defined as complete absence of a clonic seizure over the 30-min observation period. The time that the most protect was defined peak time and ED50 was determined by other dose administration at peak time. The effective dose of compound necessary to protect against seizures to 50% of controls (i.e. ED50) was determined by log probit analysis using Excel 2007 (Microsoft).

For assay [3], the system named is ICR mice. Briefly: Writhing test (0.6% acetic acid). To be noted: for ED50: Mus musculus, po. The method, then: To examine the pain relief effect of the sulfamate compounds, a writhing test was conducted, referring to Fischer, L. G. et al. (2008).
ICR mice (male, 24-28 g; Orient Bio, Korea) were habituated before test in test room for 1 hour. Animals were fasted 2 hr, before administration of compounds. Each of Compounds was orally administered at the three dose, 10 ul/g, by bodyweight (All compounds were dissolved in a vehicle of 30% (v/v) PEG 400 or 20% (v/v) Tween 80. The control group was treated with the vehicle without compounds.
0.25-2 hour after the administration of Compounds, 0.6% acetic acid at the dose of 10 ul/g, by bodyweight was injected into the mice. Animals were habituated in the cage for 5 min. 5 min after habituation, the number of writhes (abdominal constriction) was conted for 15 min, referring to Korzeniewska-Rybicka, I. et al. (1998) and compared with that of a control.

In assay [4] the test system is Sprague-Dawley rats. Briefly: Lithium-pilocarpine induced epilepsy test, intervention. Conditions: Rattus norvegicus, iv, i.v. at SE onset, read-out: Lithium pilocarpine model(inter) ED50. As for the experimental part: Male Sprague-Dawley rats (purchased from Orient Bio Inc. Korea) of body weight 175 grams were used for these studies and 3 rats per cage were housed for 4-5 days. On the day prior to SE, rats received 127 mg/kg lithium chloride (Sigma, St. Louis, Mo., U.S.A.) intraperitoneally (i.p.). Approximately 18-20 h following this treatment, rats were given an i.p. injection of CD97 dose (30-43 mg/kg) pilocarpine (Sigma). An i.p. injection of 2 mg/kg methyl-scopolamine (Sigma) was administered 30 min prior to pilocarpine to block the effects of the muscarinic agonist on peripheral cholinergic receptors. Test drugs were dissolved in 20% tween80 (Sigma).
The drugs were administered intravenously (i.v.) in a volume of 2 ul/g body weight at SE onset. Pharmacological effects of all of the test materials were evaluated to compare test groups (n=3-6) with a control group (n=3-6). Control group was administered vehicle only. The animals were then transferred to observation cages and observed continuously for 90 min. Seizure was elicited in approximately 95% of the control group. Protection was defined as complete absence of seizure grade 3-5 (Racine scale; Racine, 1972) over the 90-min observation period. The effective dose of the compound necessary to protect 50% of the animals against seizures compared to controls (i.e. ED50) was determined by a curve fitting program (Excel 2007, Microsoft).

On to `C[C@@H](OS(N)(=O)=O)[C@H](O)c1ccccc1Cl` [Example 2, (1R, 2R)-1-(2-chlorophenyl)-1-hydroxypropan-2-yl sulfamate], for which, in the assay on Sprague-Dawley rats [1], the ED50 is > 20 mg/kg.
On to `C[C@H](OS(N)(=O)=O)[C@@H](O)c1c(Cl)cccc1Cl` [Example 7, (1S, 2S)-1-(2,6-dichlorophenyl)-1-hydroxypropan-2-yl sulfamate], for which the ED50 was 75.8 mg/kg in the assay on ICR mice [2] (Mus musculus, ip, read-out: Strychnine test ED50); 10.3 mg/kg with Sprague-Dawley rats [1]; 69.6 mg/kg in the assay with ICR mice [3]; 23.3 mg/kg in the assay on Sprague-Dawley rats [4]. The “Strychnine test Peak Time” value with ICR mice [2] was 0.5 h. Besides, the “Vincristine-induced pain model Peak Time” value with Sprague-Dawley rats [1] came to 0.5 h. Also, the “Writhing test(po) Peak Time” value in the assay with ICR mice [3] turned out to be 0.5 h.
Take `C[C@@H](OS(N)(=O)=O)[C@H](O)c1c(Cl)cccc1Cl` [Example 8, (1R, 2R)-1-(2,6-dichlorophenyl)-1-hydroxypropan-2-yl sulfamate]: in the assay with ICR mice [3], the “Writhing test(po) Peak Time” value worked out at 0.25 h and the ED50 came out at 50.6 mg/kg. The ED50 in the assay with Sprague-Dawley rats [4] amounted to 44.8 mg/kg.
